# From PMC8595762 (Plant Direct, 2021)
# Columns and labels:
# PIN2 = target: T1, PIN2 (Arabidopsis thaliana, UniProt Q9LU77); assay: whole-cell patch clamp, block of currents; format: cell-based; settings: inhibition; NPPB in bath; auxin-stimulated conditions; 50 mM CsCl
# T1 sequence (Q9LU77 1-647): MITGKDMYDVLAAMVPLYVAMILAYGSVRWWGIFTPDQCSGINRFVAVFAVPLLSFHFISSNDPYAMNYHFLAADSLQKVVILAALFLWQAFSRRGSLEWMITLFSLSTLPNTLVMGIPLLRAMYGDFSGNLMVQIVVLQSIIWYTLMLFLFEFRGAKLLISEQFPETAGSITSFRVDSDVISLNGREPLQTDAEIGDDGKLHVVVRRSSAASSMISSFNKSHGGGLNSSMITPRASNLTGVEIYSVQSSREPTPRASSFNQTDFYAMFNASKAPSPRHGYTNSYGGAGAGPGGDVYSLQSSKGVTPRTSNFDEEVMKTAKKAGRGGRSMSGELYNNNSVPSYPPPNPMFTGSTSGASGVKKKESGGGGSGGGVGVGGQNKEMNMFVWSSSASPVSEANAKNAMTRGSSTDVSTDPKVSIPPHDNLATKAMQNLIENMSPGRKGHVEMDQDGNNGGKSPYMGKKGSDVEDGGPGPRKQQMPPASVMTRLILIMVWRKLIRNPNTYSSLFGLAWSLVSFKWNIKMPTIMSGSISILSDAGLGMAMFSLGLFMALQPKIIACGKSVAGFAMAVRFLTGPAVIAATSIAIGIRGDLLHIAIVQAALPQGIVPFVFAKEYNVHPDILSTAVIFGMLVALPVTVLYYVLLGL
# ABCB4 = target: T2, ABCB4 (Arabidopsis thaliana, UniProt O80725); assay: whole-cell patch clamp, current magnitude; format: cell-based; settings: activation; IAA in pipette (cytoplasmic side); 50 mM CsCl
# T2 sequence (O80725 1-1286): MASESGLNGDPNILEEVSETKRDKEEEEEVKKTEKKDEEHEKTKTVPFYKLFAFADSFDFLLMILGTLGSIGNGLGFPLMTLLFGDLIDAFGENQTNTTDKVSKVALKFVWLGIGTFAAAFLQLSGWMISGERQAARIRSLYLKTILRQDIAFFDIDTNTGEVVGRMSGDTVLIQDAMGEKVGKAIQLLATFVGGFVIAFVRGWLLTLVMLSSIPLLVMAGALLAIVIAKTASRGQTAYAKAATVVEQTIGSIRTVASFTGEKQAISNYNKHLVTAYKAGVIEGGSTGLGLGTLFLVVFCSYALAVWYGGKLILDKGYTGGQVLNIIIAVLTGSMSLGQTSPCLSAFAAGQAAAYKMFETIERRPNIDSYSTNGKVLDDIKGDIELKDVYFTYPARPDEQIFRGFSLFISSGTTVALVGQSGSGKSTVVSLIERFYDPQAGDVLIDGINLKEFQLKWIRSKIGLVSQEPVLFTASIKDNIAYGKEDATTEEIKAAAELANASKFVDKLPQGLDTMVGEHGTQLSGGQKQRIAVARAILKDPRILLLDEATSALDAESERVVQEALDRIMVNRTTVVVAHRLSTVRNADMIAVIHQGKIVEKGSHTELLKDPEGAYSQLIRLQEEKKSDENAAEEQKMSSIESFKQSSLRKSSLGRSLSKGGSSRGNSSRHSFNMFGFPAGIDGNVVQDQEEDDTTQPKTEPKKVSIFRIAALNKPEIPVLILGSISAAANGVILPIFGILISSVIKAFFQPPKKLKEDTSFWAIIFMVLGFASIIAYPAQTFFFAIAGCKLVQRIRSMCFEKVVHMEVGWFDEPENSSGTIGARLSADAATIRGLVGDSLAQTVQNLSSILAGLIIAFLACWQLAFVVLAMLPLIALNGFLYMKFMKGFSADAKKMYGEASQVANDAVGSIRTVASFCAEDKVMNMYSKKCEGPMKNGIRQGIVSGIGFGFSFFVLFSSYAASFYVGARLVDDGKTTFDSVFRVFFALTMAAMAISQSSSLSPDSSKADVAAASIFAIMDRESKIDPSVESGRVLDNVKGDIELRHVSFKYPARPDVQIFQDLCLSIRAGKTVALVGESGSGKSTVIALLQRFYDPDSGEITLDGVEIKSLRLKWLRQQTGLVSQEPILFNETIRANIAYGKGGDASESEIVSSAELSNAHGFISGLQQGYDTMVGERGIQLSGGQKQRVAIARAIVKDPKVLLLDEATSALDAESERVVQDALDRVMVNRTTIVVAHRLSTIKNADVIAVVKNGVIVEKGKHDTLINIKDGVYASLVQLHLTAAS
Compound,block at 20 μM (PIN2),"% increase in currents, 0.1 to 1 μM IAA (ABCB4)"
"O=C(O)c1cc([N+](=O)[O-])ccc1NCCCc1ccccc1 [NPPB, 5‐nitro‐2‐(3‐phenylpropylamine)‐benzoic acid]",NPPB but not NPA was an effective inhibitor,
O=C(O)Cc1c[nH]c2ccccc12 [IAA^−],,~ 30%
